Data reported in patent publication US12071434B2, “Heterocyclic compound” (Takeda Pharmaceutical Company Limited, priority 2018, dated 2024).

Molecular target: T1, human orexin type 2 receptor (Homo sapiens, UniProt O43614)
T1 construct: expressed in transfected cells
T1 sequence (O43614 1-444): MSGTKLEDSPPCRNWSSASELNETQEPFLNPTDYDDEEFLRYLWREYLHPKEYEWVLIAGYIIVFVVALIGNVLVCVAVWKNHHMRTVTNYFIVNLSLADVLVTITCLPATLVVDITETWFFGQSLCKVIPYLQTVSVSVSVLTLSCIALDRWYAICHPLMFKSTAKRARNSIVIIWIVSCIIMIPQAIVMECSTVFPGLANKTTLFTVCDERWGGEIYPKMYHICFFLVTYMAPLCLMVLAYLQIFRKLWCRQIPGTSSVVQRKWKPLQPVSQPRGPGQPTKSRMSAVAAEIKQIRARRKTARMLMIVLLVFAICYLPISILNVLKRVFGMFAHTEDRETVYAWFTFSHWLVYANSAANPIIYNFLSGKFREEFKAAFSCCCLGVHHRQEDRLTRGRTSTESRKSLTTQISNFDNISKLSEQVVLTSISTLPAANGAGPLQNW
Test: Measurement of orexin type 2 receptor agonist activity (calcium fluorescence, Fluo-4 AM, FDSS) in CHO cells forcibly expressing human OX2 receptor
Format: cell-based
Conditions: test compound 3 μM, DMSO = 0%, orexin A (human) 10 nM = 100%
Outline: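 CHO-dhfr cells stably expressing human OX2 receptor, loaded with Fluo-4 AM plus probenecid for 30 min at 37 °C, then 30 min at room temperature. Calcium fluorescence read for about 2 min 40 s after compound addition. Activity (%) scaled between DMSO (0%) and 10 nM human orexin A (100%).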

## Cc1ccc(=O)n2c1CC[C@H](NS(C)(=O)=O)[C@@H]2Cc1cccc(-c2ccccc2)c1 (racemic) [Example 8, rac-N-{(3S,4S)-4-[([1,1′-biphenyl]-3-yl)methyl]-9-methyl-6-oxo-1,3,4,6-tetrahydro-2H-quinolizin-3-yl}methanesulfonamide]
  0X2R agonist activity (3 μM, %): 97%

## Cn1cc2n(c1=O)C(Cc1cccc(-c3ccccc3)c1)C(NC(=O)[C@@H]1CCCO1)CC2 (mixture of isomers) [Example 205, (2S)-N-{(5SR,6SR)-5-[([1,1′-biphenyl]-3-yl)methyl]-2-methyl-3-oxo-2,3,5,6,7,8-hexahydroimidazo[1,5-a]pyridin-6-yl}oxolane-2-carboxamide]
  0X2R agonist activity (3 μM, %): 81%

## Cc1cc(=O)n2c(c1C)CC[C@H](NS(C)(=O)=O)[C@@H]2Cc1cccc(-c2ccccc2)c1 (racemic) [Example 20, rac-N-{(3S,4S)-4-[([1,1′-biphenyl]-3-yl)methyl]-8,9-dimethyl-6-oxo-1,3,4,6-tetrahydro-2H-quinolizin-3-yl}methanesulfonamide]
  0X2R agonist activity (3 μM, %): 113%

## [2H]C([2H])([2H])C([2H])(n1cnc2c(c1=O)C(Cc1cccc(-c3ccccc3)c1F)C(NS(=O)(=O)C1(F)CC1)CC2)C([2H])([2H])[2H] [Example 213, rel-1-fluoro-N-{(5S,6R)-5-[(2-fluoro[1,1′-biphenyl]-3-yl)methyl]-4-oxo-3-[(~2~H_7_)propan-2-yl]-3,4,5,6,7,8-hexahydroquinazolin-6-yl}cyclopropane-1-sulfonamide]
  0X2R agonist activity (3 μM, %): 105%

## CCS(=O)(=O)N[C@H]1CCc2ncn(C(C)C)c(=O)c2[C@H]1Cc1cccc(-c2cccc(F)c2F)c1 [Example 200, N-[(5R,6S)-5-[(2′,3′-difluoro[1,1′-biphenyl]-3-yl)methyl]-4-oxo-3-(propan-2-yl)-3,4,5,6,7,8-hexahydroquinazolin-6-yl]ethanesulfonamide]
  0X2R agonist activity (3 μM, %): 89%

## CCn1ccc2c(c1=O)[C@@H](Cc1cccc(-c3cccc(C)c3F)c1)[C@@H](NS(C)(=O)=O)CC2 (racemic) [Example 120, rac-N-{(7S,8R)-2-ethyl-8-[(2′-fluoro-3′-methyl[1,1′-biphenyl]-3-yl)methyl]-1-oxo-1,2,5,6,7,8-hexahydroisoquinolin-7-yl}methanesulfonamide]
  0X2R agonist activity (3 μM, %): 98%

## CC(C)n1cnc2c(c1=O)[C@@H](Cc1cccc(-c3ccccc3)c1F)[C@@H](NS(C)(=O)=O)[C@H](F)[C@H]2F (racemic) [Example 198, rac-N-[(5R,6R,7S,8S)-7,8-difluoro-5-[(2-fluoro[1,1′-biphenyl]-3-yl)methyl]-4-oxo-3-(propan-2-yl)-3,4,5,6,7,8-hexahydroquinazolin-6-yl]methanesulfonamide]
  0X2R agonist activity (3 μM, %): 85%

## CCS(=O)(=O)N[C@H]1CCc2ncn(C(C)C)c(=O)c2[C@H]1Cc1cccc(-c2ccccc2)c1 (racemic) [Example 80, rac-N-[(5R,6S)-5-[([1,1′-biphenyl]-3-yl)methyl]-4-oxo-3-(propan-2-yl)-3,4,5,6,7,8-hexahydroquinazolin-6-yl]ethanesulfonamide]
  0X2R agonist activity (3 μM, %): 93%

## Cn1cc2n(c1=O)[C@@H](Cc1cccc(-c3cc(F)cc(F)c3)c1F)[C@@H](NS(C)(=O)=O)CC2 (racemic) [Example 209, rac-N-{(5S,6S)-2-methyl-3-oxo-5-[(2,3′,5′-trifluoro[1,1′-biphenyl]-3-yl)methyl]-2,3,5,6,7,8-hexahydroimidazo[1,5-a]pyridin-6-yl}methanesulfonamide]
  0X2R agonist activity (3 μM, %): 74%

## CS(=O)(=O)N[C@H]1CCc2cccc(=O)n2[C@H]1Cc1cccc(-c2ccccc2)c1 (racemic) [Example 1, rac-N-{(3S,4S)-4-[([1,1′-biphenyl]-3-yl)methyl]-6-oxo-1,3,4,6-tetrahydro-2H-quinolizin-3-yl}methanesulfonamide]
  0X2R agonist activity (3 μM, %): 79%

## CCc1c(C)n(C)c2c(c1=O)[C@@H](Cc1cccc(-c3ccccc3)c1)[C@@H](NS(C)(=O)=O)CC2 (racemic) [Example 211, rac-N-{(5R,6S)-5-[([1,1′-biphenyl]-3-yl)methyl]-3-ethyl-1,2-dimethyl-4-oxo-1,4,5,6,7,8-hexahydroquinolin-6-yl}methanesulfonamide]
  0X2R agonist activity (3 μM, %): 82%

## CS(=O)(=O)N[C@H]1CCc2ncn(CC3CC3)c(=O)c2[C@H]1Cc1cccc(-c2ccccc2)c1 (racemic) [Example 103, rac-N-[(5R,6S)-5-[([1,1′-biphenyl]-3-yl)methyl]-3-(cyclopropylmethyl)-4-oxo-3,4,5,6,7,8-hexahydroquinazolin-6-yl]methanesulfonamide]
  0X2R agonist activity (3 μM, %): 79%

## CC(C)c1nn(C)c2c(c1=O)[C@@H](Cc1cccc(-c3ccccc3)c1)[C@@H](NS(C)(=O)=O)CC2 (racemic) [Example 158, rac-N-[(5R,6S)-5-[([1,1′-biphenyl]-3-yl)methyl]-1-methyl-4-oxo-3-(propan-2-yl)-1,4,5,6,7,8-hexahydrocinnolin-6-yl]methanesulfonamide]
  0X2R agonist activity (3 μM, %): 101%

## CCS(=O)(=O)N[C@H]1CCc2ncn(C(C)C)c(=O)c2[C@H]1Cc1cccc(-c2cccc(F)c2F)c1 (racemic) [Example 85, rac-N-[(5R,6S)-5-[(2′,3′-difluoro[1,1′-biphenyl]-3-yl)methyl]-4-oxo-3-(propan-2-yl)-3,4,5,6,7,8-hexahydroquinazolin-6-yl]ethanesulfonamide]
  0X2R agonist activity (3 μM, %): 98%

## CN1CC[C@@H]2CC[C@H](NS(C)(=O)=O)[C@H](Cc3cccc(-c4ccccc4)c3)N2C1=O (racemic) [Example 62, rac-N-{(4aS,7S,8S)-8-[([1,1′-biphenyl]-3-yl)methyl]-2-methyl-1-oxooctahydro-1H-pyrido[1,2-c]pyrimidin-7-yl}methanesulfonamide]
  0X2R agonist activity (3 μM, %): 92%

## CC(C)n1cnc2c(c1=O)[C@@H](Cc1cccc(-c3ccccc3F)c1)[C@@H](NS(=O)(=O)C1CC1)CC2 [Example 192, N-[(5R,6S)-5-[(2′-fluoro[1,1′-biphenyl]-3-yl)methyl]-4-oxo-3-(propan-2-yl)-3,4,5,6,7,8-hexahydroquinazolin-6-yl]cyclopropanesulfonamide]
  0X2R agonist activity (3 μM, %): 101%

## CC(C)n1cnc2c(c1=O)[C@@H](Cc1cc(F)cc(-c3ccccc3)c1)[C@@H](NS(C)(=O)=O)CC2 (relative stereo) [Example 141, rel-N-[(5R,6S)-5-[(5-fluoro[1,1′-biphenyl]-3-yl)methyl]-4-oxo-3-(propan-2-yl)-3,4,5,6,7,8-hexahydroquinazolin-6-yl]methanesulfonamide]
  0X2R agonist activity (3 μM, %): 103%

## CCn1ccc2c(c1=O)[C@@H](Cc1cccc(-c3ccccc3)c1)[C@@H](NS(C)(=O)=O)CC2 (racemic) [Example 47, rac-N-{(7S,8R)-8-[([1,1′-biphenyl]-3-yl)methyl]-2-ethyl-1-oxo-1,2,5,6,7,8-hexahydroisoquinolin-7-yl}methanesulfonamide]
  0X2R agonist activity (3 μM, %): 96%

## CC(C)n1cnc2c(c1=O)[C@@H](Cc1cccc(-c3ccccc3F)c1F)[C@@H](NS(C)(=O)=O)CC2 (relative stereo) [Example 149, rel-N-[(5R,6S)-5-[(2,2′-difluoro[1,1′-biphenyl]-3-yl)methyl]-4-oxo-3-(propan-2-yl)-3,4,5,6,7,8-hexahydroquinazolin-6-yl]methanesulfonamide]
  0X2R agonist activity (3 μM, %): 105%

## CC(C)n1cnc2c(c1=O)[C@@H](Cc1csc(-c3ccccc3F)n1)[C@@H](NS(C)(=O)=O)CC2 (relative stereo) [Example 155, rel-N-[(5R,6S)-5-{[2-(2-fluorophenyl)-1,3-thiazol-4-yl]methyl}-4-oxo-3-(propan-2-yl)-3,4,5,6,7,8-hexahydroquinazolin-6-yl]methanesulfonamide]
  0X2R agonist activity (3 μM, %): 104%

## Cc1cc2n(c(=O)c1)[C@@H](Cc1cccc(-c3ccccc3)c1)[C@@H](NS(C)(=O)=O)CC2 (racemic) [Example 14, rac-N-{(3S,4S)-4-[([1,1′-biphenyl]-3-yl)methyl]-8-methyl-6-oxo-1,3,4,6-tetrahydro-2H-quinolizin-3-yl}methanesulfonamide]
  0X2R agonist activity (3 μM, %): 107%
